Laboratory results published in paper PMC3236199, “Development of Derivatives of 3, 3′-Diindolylmethane as Potent Leishmania donovani Bi-Subunit Topoisomerase IB Poisons” (PLoS ONE, 2011).

tested on: L. donovani topoisomerase I; assay: Immunoband depletion assay, topoisomerase I; assay type: cell-based, Leishmania donovani; settings: 20 µM, 6 h incubation, promastigotes
Procedure: Leishmania cells (3×10^7) were cultured in absence and presence of the drugs. Nuclear fractions were isolated as described. Briefly, cells were suspended in hypotonic buffer (10 mM Tris-HCl, pH 7.5, 1 mM EDTA, 0.1 mM EGTA, 1 mM PMSF, 1 mM benzamidine hydrochloride and 5 mM DTT) and homogenized. The homogenate was centrifuged for 10 min at 10,000 g. The pellets were washed and used as the source of nuclear fraction. Thereafter, the nuclear fractions were lysed with 1% SDS and subjected to SDS-PAGE (10%). The proteins were electrophoretically transferred to nitrocellulose membranes and immumobloting of immobilized proteins were carried out using a rabbit polyclonal antibody raised against LdTOP1S for topoisomerase I and ATPase domain of L. donovani topoisomerase II [8].
We have reported earlier that DIM induces topoisomerase I and not topoisomerase II-mediated cleavable complex formation in L. donovani. To investigate the ability of DIM derivatives to induce in vivo covalent complex formation between topoisomerase I and DNA in the Leishmania parasites we performed the immunoband depletion experiments with L. donovani promastigotes. Nuclear fractions were prepared from untreated as well as drug-treated promastigotes and subjected to SDS-PAGE. If topoisomerase I can form a covalent complex with genomic DNA inside the cells, then topoisomerase I-DNA cleavable complex cannot enter into the gel. […] The presence of topoisomerase I was detected by immunoblotting as described in ‘Materials and Methods’. It was observed that the immunoband of topoisomerase I disappeared in presence of 20 µM of DIM, DPDIM, DMDIM and DMODIM for 6 h incubation respectively (lanes 2–5). […] It should be mentioned here that topoisomerase I of Leishmania is a heterodimer and the catalytic site (SKXXY) is present in the small subunit of enzyme (LdTOP1S), which is involved in the formation of topoisomerase I-DNA covalent complex. So we have used the antibody raised against the small subunit of L. donovani topoisomerase I to study the immunoband depletion assay.
Figure 6 DIM-derivatives induce in vivo formation of topoisomerase-DNA cleavable complex within the cells. Stabilization of topoisomerase-I mediated cleavable complex was determined by immunoband depletion assay. Top panel: Immunoband depletion of L. donovani topoisomerase I, using an antibody raised against […]. Leishmanial cells were treated with 0.2% DMSO alone (lane 1), 20 µM each of DIM (lane 2), DPDIM (lane 3), DMDIM (lane 4) and DMODIM (lane 5) respectively. Lanes 6–9, preincubation with 20 µM DHBA before treatment with DIM, DPDIM, DMDIM and DMODIM respectively. Bottom panel: β-tubulin loading control.

SMILES | immunoband of topoisomerase I
Cc1[nH]c2ccccc2c1Cc1c(C)[nH]c2ccccc12 [DMDIM, 2,2′-dimethyl 3,3′-diindolyl methane] | disappeared
c1ccc(-c2[nH]c3ccccc3c2Cc2c(-c3ccccc3)[nH]c3ccccc23)cc1 [DPDIM, 2,2′-diphenyl 3,3′-diindolyl methane] | disappeared
c1ccc2c(Cc3c[nH]c4ccccc34)c[nH]c2c1 [DIM, 3, 3′-diindolyl methane, reference compound] | disappeared
COc1ccc2[nH]cc(Cc3c[nH]c4ccc(OC)cc34)c2c1 [DMODIM, 5,5′-dimethoxy 3,3′-diindolyl methane] | disappeared

tested on: LdTOP1LS; assay: Equilibrium (duplex oligonucleotide) cleavage assay, wild type enzyme; assay type: biochemical, Leishmania donovani; settings: 20 µM, with respect to cleavable complex formed without drug with wild type enzyme
Procedure: The 25-mer oligonucleotide 1 (5′-GAAAAAAGACTT↓AGAAAAATTTTTA-3′) was 5′-end labeled with [γ^32P] ATP and annealed with oligonucleotide 2 (5′-[…]-3′) to make a duplex oligonucleotide containing a topoisomerase I binding motif as described. Cleavage assay was carried out using 20-fold molar excess of enzymes over duplex 25-mer DNA (enzymes, 0.2 µM; DNA, 10 nM). The reactions were carried out in standard assay condition in the absence or presence of drugs at 37°C for 30 min. All the reactions were stopped by addition of SDS to a final concentration of 2% (w/v), digested with 5 µl of 1 mg/ml trypsin and analyzed by 12% denaturing polyacrylamide gel followed by autoradiography. The amount of strand cleavage in the presence of drugs was determined by densitometry of the film as described.
The effect of DIM and its derivatives on L. donovani topoisomerase I was examined by plasmid DNA cleavage assay as described. The topoisomerase reaction has three general mechanistic steps: (i) binding of enzyme to the substrate DNA, (ii) single strand breakage and subsequent strand rotation through the break leading to change in linking number, and (iii) strand religation. The second step of reaction is the introduction of a single-stranded nick in the phosphodiester bond of the DNA, through which an intact strand is allowed to pass. During this process, a covalent bond is formed between the 3′-phosphoryl group of the DNA backbone and the tyrosine residue at the active site of topoisomerase I. Topoisomerase inhibition can be achieved by prevention of enzyme-DNA binary complex formation or by stabilization of enzyme-DNA cleavable complex. To investigate the ability of DIM-derivatives to stabilize the cleavable complex formation between enzyme and oligonucleotide containing a topoisomerase IB specific binding motif we carried out plasmid cleavage assay as described previously. Cleavage assay was performed with LdTOP1LS and pHOT1 DNA containing a topoisomerase IB specific binding motif as described in ‘Materials and Methods’. […]

SMILES | extent of cleavage
Cc1[nH]c2ccccc2c1Cc1c(C)[nH]c2ccccc12 [DMDIM, 2,2′-dimethyl 3,3′-diindolyl methane] | approximately 61%
c1ccc(-c2[nH]c3ccccc3c2Cc2c(-c3ccccc3)[nH]c3ccccc23)cc1 [DPDIM, 2,2′-diphenyl 3,3′-diindolyl methane] | 67%
COc1ccc2[nH]cc(Cc3c[nH]c4ccc(OC)cc34)c2c1 [DMODIM, 5,5′-dimethoxy 3,3′-diindolyl methane] | ~56%
